target: S. pyogenes DNA polymerase holoenzyme (PolC, tau-complex, β) (Streptococcus pyogenes, UniProt Q8NZB5); format: biochemical; conditions: read-out: IC50 S. pyog.
Sequence (Q8NZB5 whole entry): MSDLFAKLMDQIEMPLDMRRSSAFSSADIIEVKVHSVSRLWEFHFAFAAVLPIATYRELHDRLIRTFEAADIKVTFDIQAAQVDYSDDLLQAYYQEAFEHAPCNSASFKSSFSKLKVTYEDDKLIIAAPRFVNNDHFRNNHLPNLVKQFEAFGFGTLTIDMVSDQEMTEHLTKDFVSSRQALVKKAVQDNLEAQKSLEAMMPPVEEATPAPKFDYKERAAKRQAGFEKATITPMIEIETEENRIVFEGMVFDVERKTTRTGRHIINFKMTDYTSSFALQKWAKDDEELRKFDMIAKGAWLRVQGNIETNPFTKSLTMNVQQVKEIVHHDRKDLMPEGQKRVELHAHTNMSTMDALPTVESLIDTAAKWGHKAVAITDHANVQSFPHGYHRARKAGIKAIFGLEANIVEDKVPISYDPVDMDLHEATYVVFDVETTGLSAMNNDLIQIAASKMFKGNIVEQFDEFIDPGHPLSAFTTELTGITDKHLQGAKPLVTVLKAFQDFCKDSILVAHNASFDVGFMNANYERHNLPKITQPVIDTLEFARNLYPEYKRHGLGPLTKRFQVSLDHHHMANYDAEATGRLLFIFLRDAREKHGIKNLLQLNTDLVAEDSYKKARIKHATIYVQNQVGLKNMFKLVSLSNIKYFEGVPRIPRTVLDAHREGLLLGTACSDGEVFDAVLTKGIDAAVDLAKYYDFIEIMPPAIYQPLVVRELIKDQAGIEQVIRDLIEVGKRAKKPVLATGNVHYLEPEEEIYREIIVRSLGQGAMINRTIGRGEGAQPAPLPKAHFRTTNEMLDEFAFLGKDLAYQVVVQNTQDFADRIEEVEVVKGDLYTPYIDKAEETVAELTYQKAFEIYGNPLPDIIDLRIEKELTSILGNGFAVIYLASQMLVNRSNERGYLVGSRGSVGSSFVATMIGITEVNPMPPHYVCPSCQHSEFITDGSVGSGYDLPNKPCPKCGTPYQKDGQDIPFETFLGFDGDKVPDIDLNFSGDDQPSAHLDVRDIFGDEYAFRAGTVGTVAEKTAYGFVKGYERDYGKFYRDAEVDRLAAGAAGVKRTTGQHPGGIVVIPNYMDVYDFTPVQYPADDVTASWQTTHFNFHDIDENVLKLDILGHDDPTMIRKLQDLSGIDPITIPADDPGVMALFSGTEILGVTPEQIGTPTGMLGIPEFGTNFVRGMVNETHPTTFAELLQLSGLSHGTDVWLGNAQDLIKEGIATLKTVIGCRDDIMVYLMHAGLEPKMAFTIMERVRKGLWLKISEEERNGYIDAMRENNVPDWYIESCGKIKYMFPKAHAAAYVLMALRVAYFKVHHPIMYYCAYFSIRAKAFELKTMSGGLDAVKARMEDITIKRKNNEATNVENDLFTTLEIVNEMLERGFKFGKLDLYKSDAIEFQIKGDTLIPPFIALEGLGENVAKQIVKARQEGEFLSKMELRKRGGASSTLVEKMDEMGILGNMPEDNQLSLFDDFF
Sequence (Q7DAL6 1-556 partner): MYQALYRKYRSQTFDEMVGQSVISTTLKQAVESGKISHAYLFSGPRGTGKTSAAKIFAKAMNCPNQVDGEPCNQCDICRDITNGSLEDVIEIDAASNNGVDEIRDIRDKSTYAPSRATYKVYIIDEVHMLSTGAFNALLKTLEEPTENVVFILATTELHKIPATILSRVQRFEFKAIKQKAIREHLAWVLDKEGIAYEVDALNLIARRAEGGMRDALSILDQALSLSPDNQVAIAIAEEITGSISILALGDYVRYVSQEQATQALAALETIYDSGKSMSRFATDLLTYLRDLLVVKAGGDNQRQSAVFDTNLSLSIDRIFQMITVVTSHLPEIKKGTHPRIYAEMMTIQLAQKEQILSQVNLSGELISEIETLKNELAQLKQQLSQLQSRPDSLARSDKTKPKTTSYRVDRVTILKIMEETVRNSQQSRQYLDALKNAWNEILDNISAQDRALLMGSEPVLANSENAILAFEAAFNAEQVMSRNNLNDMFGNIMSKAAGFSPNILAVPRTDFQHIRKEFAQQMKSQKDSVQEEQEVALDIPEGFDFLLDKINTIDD
Sequence (Q7DAL5 1-346 partner): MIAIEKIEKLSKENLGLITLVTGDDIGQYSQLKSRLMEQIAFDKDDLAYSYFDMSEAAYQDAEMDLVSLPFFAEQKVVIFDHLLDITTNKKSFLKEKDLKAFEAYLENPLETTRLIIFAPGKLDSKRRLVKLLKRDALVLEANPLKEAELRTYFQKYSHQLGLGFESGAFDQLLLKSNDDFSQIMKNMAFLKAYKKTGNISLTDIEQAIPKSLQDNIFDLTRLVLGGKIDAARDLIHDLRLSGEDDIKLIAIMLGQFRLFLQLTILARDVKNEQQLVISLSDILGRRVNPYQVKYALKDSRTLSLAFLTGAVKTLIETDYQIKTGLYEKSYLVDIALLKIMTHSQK
Sequence (Q9A209 1-378 partner): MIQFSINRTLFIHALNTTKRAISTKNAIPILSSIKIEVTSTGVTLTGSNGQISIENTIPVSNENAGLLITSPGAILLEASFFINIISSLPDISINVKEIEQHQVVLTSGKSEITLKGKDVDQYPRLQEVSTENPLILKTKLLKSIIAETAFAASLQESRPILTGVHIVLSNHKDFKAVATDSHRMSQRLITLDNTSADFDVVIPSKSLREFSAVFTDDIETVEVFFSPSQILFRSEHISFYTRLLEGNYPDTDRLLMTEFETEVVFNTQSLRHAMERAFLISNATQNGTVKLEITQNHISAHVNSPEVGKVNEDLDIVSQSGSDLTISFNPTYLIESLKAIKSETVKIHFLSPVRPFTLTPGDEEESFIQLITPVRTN

SMILES | IC50 [µM]
O=C1NC(=S)S/C1=C\c1cc([N+](=O)[O-])ccc1OC(F)F | 96
COc1c(Br)cc(Br)cc1/C=C1\SC(=S)NC1=O | 18.1
O=C1NC(=S)S/C1=C\c1cc2c(cc1[N+](=O)[O-])OCO2 | 98.3
Cc1cccc(C)c1/C=C1\SC(=S)NC1=O | 271
O=C1NC(=S)S/C1=C\c1cc(Br)ccc1F | 64.5
O=C1NC(=S)S/C1=C\c1cccc(F)c1F | 214
C/N=C1\NC(=O)/C(=C/c2ccc(Cl)c(Cl)c2)S1 | 112
O=C1NC(=S)S/C1=C\c1cc(Br)cc(Br)c1O | > 320
O=C1NC(=S)S/C1=C\c1ccc(Cl)c(Cl)c1 [drawing 37] | > 320
O=C1NC(=S)S/C1=C\c1cc([N+](=O)[O-])ccc1F | 89.7
O=C1NC(=S)S/C1=C\c1c(Cl)cccc1Cl | 102
O=C1NC(=S)S/C1=C\c1cc([N+](=O)[O-])ccc1N1CCCCC1 | 23.7
CN(C)c1ccc(/C=C2\SC(=S)NC2=O)c([NH+]([O-])O)c1 (stereo not shown) | 44.4
COc1ccc([N+](=O)[O-])cc1/C=C1\SC(=S)NC1=O | 89
COc1cc(F)c(/C=C2\SC(=S)NC2=O)cc1OC | > 320
C/N=C1\NC(=O)/C(=C/c2cc(Br)cc(Br)c2OC)S1 | > 320
O=C1NC(=S)S/C1=C\c1cccc(C(F)(F)F)c1F | 67.9
O=C1NC(=S)S/C1=C\c1ccc(Cl)c(Cl)c1 [drawing 34] | 37.2
COc1cc(/C=C2\SC(=S)NC2=O)c([N+](=O)[O-])cc1OC | > 320
O=C1NC(=S)S/C1=C\c1cc(F)c(F)cc1F | 121
O=C1NC(=S)S/C1=C\c1cc([N+](=O)[O-])ccc1SC1CCCCC1 | 8.73
CC(C)(C)c1ccc(Oc2ccc([N+](=O)[O-])cc2/C=C2\SC(=S)NC2=O)cc1 | 4.38
O=C1NC(=S)S/C1=C\c1c(F)cccc1F | > 320

SMILES | IC50 [µM]
O=C1NC(=S)S/C1=C\c1ccc(N2CCOCC2)c([N+](=O)[O-])c1 | > 320
CCOc1c(Br)cc(Br)cc1/C=C1\SC(=S)NC1=O | 13.5
O=C1NC(=S)S/C1=C\c1ccc(Cl)cc1[N+](=O)[O-] | 133
COc1cccc(/C=C2\SC(=S)NC2=O)c1F | 277
CC(C)Oc1c(Br)cc(Br)cc1/C=C1\SC(=S)NC1=O | 7.11
COc1cccc(F)c1/C=C1\SC(=S)NC1=O | > 320
O=C1NC(=S)S/C1=C\c1cc(Br)cc(Br)c1 | 14.2
COc1ccc(/C=C2\SC(=S)NC2=O)cc1[N+](=O)[O-] | > 320
O=C1NC(=S)S/C1=C\c1cc([N+](=O)[O-])ccc1Sc1ccc(Cl)cc1 | 3.53
O=C1NC(=S)S/C1=C\c1cc([N+](=O)[O-])ccc1N1CCOCC1 | 192
COc1ccc(F)c(/C=C2\SC(=S)NC2=O)c1 | 193
COc1cccc(OC)c1/C=C1\SC(=S)NC1=O | > 320
O=C1NC(=S)S/C1=C\c1ccc(Br)cc1F | 60
N=C1NC(=O)/C(=C/c2ccc(Cl)c(Cl)c2)S1 | 145
O=C1NC(=S)S/C1=C\c1ccc(F)cc1F | 288
O=C1NC(=S)S/C1=C\c1ccc(F)c(F)c1 | 181
O=C1NC(=S)S/C1=C\c1ccc(Cl)c([N+](=O)[O-])c1 | 24.2
O=C1NC(=S)S/C1=C\c1cccc(Cl)c1F | 79.9
O=C1NC(=S)S/C1=C\c1cc([N+](=O)[O-])ccc1Cl | 81.6
O=C1NC(=S)S/C1=C\c1cc(Cl)ccc1[N+](=O)[O-] | 163
O=C1NC(=S)S/C1=C\c1cc(C(F)(F)F)ccc1F | 45.1
O=C1NC(=S)S/C1=C\c1cc(F)ccc1F | 211

target: Y. pestis DNA polymerase III holoenzyme (Yersinia pestis, UniProt Q0WHY6); format: biochemical; conditions: read-out: IC50 Y. pestis

SMILES | IC50 [µM]
O=C1NC(=S)S/C1=C\c1cc([N+](=O)[O-])ccc1OC(F)F | 52.9
COc1c(Br)cc(Br)cc1/C=C1\SC(=S)NC1=O | 31.4
O=C1NC(=S)S/C1=C\c1cc2c(cc1[N+](=O)[O-])OCO2 | 144
Cc1cccc(C)c1/C=C1\SC(=S)NC1=O | 302
O=C1NC(=S)S/C1=C\c1cc(Br)ccc1F | 95.9
O=C1NC(=S)S/C1=C\c1cccc(F)c1F | 212
C/N=C1\NC(=O)/C(=C/c2ccc(Cl)c(Cl)c2)S1 | 286
O=C1NC(=S)S/C1=C\c1cc(Br)cc(Br)c1O | > 320
O=C1NC(=S)S/C1=C\c1ccc(Cl)c(Cl)c1 [drawing 37] | > 320
O=C1NC(=S)S/C1=C\c1cc([N+](=O)[O-])ccc1F | 101
O=C1NC(=S)S/C1=C\c1c(Cl)cccc1Cl | 162
O=C1NC(=S)S/C1=C\c1cc([N+](=O)[O-])ccc1N1CCCCC1 | 41.2
CN(C)c1ccc(/C=C2\SC(=S)NC2=O)c([NH+]([O-])O)c1 (stereo not shown) | 22.6
COc1ccc([N+](=O)[O-])cc1/C=C1\SC(=S)NC1=O | 126
COc1cc(F)c(/C=C2\SC(=S)NC2=O)cc1OC | > 320
C/N=C1\NC(=O)/C(=C/c2cc(Br)cc(Br)c2OC)S1 | > 320
O=C1NC(=S)S/C1=C\c1cccc(C(F)(F)F)c1F | 166
O=C1NC(=S)S/C1=C\c1ccc(Cl)c(Cl)c1 [drawing 34] | 61.6
COc1cc(/C=C2\SC(=S)NC2=O)c([N+](=O)[O-])cc1OC | > 320
O=C1NC(=S)S/C1=C\c1cc(F)c(F)cc1F | 203
O=C1NC(=S)S/C1=C\c1cc([N+](=O)[O-])ccc1SC1CCCCC1 | 9.94
CC(C)(C)c1ccc(Oc2ccc([N+](=O)[O-])cc2/C=C2\SC(=S)NC2=O)cc1 | 7.03

SMILES | IC50 [µM]
O=C1NC(=S)S/C1=C\c1c(F)cccc1F | 196
O=C1NC(=S)S/C1=C\c1ccc(N2CCOCC2)c([N+](=O)[O-])c1 | > 320
CCOc1c(Br)cc(Br)cc1/C=C1\SC(=S)NC1=O | 22.3
O=C1NC(=S)S/C1=C\c1ccc(Cl)cc1[N+](=O)[O-] | 63.9
COc1cccc(/C=C2\SC(=S)NC2=O)c1F | 54.1
CC(C)Oc1c(Br)cc(Br)cc1/C=C1\SC(=S)NC1=O | 18.8
O=C1NC(=S)S/C1=C\c1cc(Br)cc(Br)c1 | 22
COc1ccc(/C=C2\SC(=S)NC2=O)cc1[N+](=O)[O-] | 48.9
O=C1NC(=S)S/C1=C\c1cc([N+](=O)[O-])ccc1Sc1ccc(Cl)cc1 | 4.62
O=C1NC(=S)S/C1=C\c1cc([N+](=O)[O-])ccc1N1CCOCC1 | 108
COc1ccc(F)c(/C=C2\SC(=S)NC2=O)c1 | 179
COc1cccc(OC)c1/C=C1\SC(=S)NC1=O | 186
O=C1NC(=S)S/C1=C\c1ccc(Br)cc1F | 28.5
N=C1NC(=O)/C(=C/c2ccc(Cl)c(Cl)c2)S1 | 116
O=C1NC(=S)S/C1=C\c1ccc(F)cc1F | 315
O=C1NC(=S)S/C1=C\c1ccc(F)c(F)c1 | 241
O=C1NC(=S)S/C1=C\c1ccc(Cl)c([N+](=O)[O-])c1 | 27.2
O=C1NC(=S)S/C1=C\c1cccc(Cl)c1F | 123
O=C1NC(=S)S/C1=C\c1cc([N+](=O)[O-])ccc1Cl | 88.9
O=C1NC(=S)S/C1=C\c1cc(Cl)ccc1[N+](=O)[O-] | 267
O=C1NC(=S)S/C1=C\c1ccc([N+](=O)[O-])c(O)c1 | 162
O=C1NC(=S)S/C1=C\c1cc(C(F)(F)F)ccc1F | 108

target: Y. pestis DNA polymerase III holoenzyme; format: biochemical; conditions: not given

SMILES | IC50 [µM]
COc1cccc(F)c1/C=C1\SC(=S)NC1=O | 195

target: Pol III holoenzyme; format: biochemical; conditions: read-out: low μM activity as Pol III holoenzyme inhibitor

SMILES | IC50 [µM]
O=C1NC(=S)SC1=Cc1cc([N+](=O)[O-])ccc1Sc1ccc(Cl)cc1 [5-[2-(4-Chloro-phenylsulfanyl)-5-nitro-benzylidene]-2-thioxo-thiazolidin-4-one] | 3 to 7
